Consider 23 compounds from patent US20250388565A1, “ESTROGEN RECEPTOR ALPHA DEGRADERS AND METHODS OF USE THEREOF” (Relay Therapeutics, Inc., priority 2022, published 2025).

Structures are written as SMILES.

For this assay, the target named is T1, ERα protein (HiBiT-tagged) in ESR1_HiBiT KI MCF7 cells (Homo sapiens, UniProt P03372).
T1 sequence (P03372 1-595): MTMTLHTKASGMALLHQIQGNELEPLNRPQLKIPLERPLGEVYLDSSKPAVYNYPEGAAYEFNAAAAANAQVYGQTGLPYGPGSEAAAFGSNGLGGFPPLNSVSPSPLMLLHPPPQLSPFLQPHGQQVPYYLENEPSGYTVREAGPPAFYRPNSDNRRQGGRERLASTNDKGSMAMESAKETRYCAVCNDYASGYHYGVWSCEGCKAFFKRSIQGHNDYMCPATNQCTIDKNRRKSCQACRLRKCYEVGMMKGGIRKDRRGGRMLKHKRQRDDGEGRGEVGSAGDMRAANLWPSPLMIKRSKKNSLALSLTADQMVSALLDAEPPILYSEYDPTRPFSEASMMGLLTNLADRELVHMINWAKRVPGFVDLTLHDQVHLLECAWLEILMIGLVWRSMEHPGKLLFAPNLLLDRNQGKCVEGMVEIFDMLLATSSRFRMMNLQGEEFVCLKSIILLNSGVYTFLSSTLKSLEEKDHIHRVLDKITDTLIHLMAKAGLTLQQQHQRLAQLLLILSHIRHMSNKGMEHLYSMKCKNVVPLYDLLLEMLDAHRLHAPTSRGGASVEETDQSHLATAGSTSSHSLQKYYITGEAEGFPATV
Nature of the assay: Nano Glo HiBiT Lytic Degradation Assay. In kind it is cell-based. The conditions noted are these: 6 hours with compound, 14-point dose response 1:3, bell-shape curve fit, half-maximal effect of first Hill model, read-out: MCF7 ESR1 HiBiT - (DC50). In outline: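 ESR1_HiBiT knock-in MCF7 cells were seeded 24 h before treatment, then exposed to compounds for 6 h at 37° C (14-point 1:3 curves, 10 mM top stock, 0.1% DMSO final, duplicates). HiBiT-ERα was read by lytic LgBiT luminescence, background-subtracted and normalized to DMSO. DC50 was taken from the half-maximal point of the first Hill component of a bell-shaped fit.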
(In general: The HiBiT peptide binds its large partner to form an active luciferase.)
As a reminder, the DC50 is the midpoint of the concentration-degradation curve. With `O=C1CCC(c2cccc(N3CCC4C3CCN4CC3CCN(c4ccc([C@@H]5c6ccc(O)cc6CC[C@@H]5c5ccccc5)cc4)CC3)c2)C(=O)N1` (stereo in doubt) [Compound I-178, 3-(3-((3aS,6aS)-4-((1-(4-((1R,2S)-6-hydroxy-2-phenyl-1,2,3,4-tetrahydronaphthalen-1-yl)phenyl)piperidin-4-yl)methyl)hexahydropyrrolo[3,2-b]pyrrol-1 (2H)-yl)phenyl)piperidine-2,6-dione], the DC50 came to 3300 nM.

For `O=C1CC[C@H](N2Cc3cc(N4CCN(CC5CCN(c6ccc([C@H]7c8ccc(O)cc8C(F)(F)C[C@H]7c7ccccc7)c(F)c6)CC5)CC4)ccc3C2=O)C(=O)N1` [Compound I-307, (S)-3-(5-(4-((1-(4-((1R,2R)-4,4-difluoro-6-hydroxy-2-phenyl-1,2,3,4-tetrahydronaphthalen-1-yl)-3-fluorophenyl)piperidin-4-yl)methyl)piperazin-1-yl)-1-oxoisoindolin-2-yl)piperidine-2,6-dione], the DC50 stood at 19 nM.

Take `O=C1CC[C@H](N2Cc3cc(N4CCN(CC5CCN(c6ccc([C@H]7c8ccc(O)cc8CC[C@H]7C7CCCCC7)c(F)c6)CC5)CC4)ccc3C2=O)C(=O)N1` [Compound I-136, (S)-3-(5-(4-((1-(4-((1R,2S)-2-cyclohexyl-6-hydroxy-1,2,3,4-tetrahydronaphthalen-1-yl)-3-fluorophenyl)piperidin-4-yl)methyl)piperazin-1-yl)-1-oxoisoindolin-2-yl)piperidine-2,6-dione]: the DC50 is at least 10000 nM.

For `Cc1cc([C@@H]2CCc3cc(O)ccc3[C@@H]2c2ccc(N3CCC(CN4CCN(c5ccc6c(c5)CN([C@H]5CCC(=O)NC5=O)C6=O)CC4)CC3)cc2)n(C)n1` (single isomer, unassigned) [Compound I-415], the DC50 was 0.02 nM.

For `O=C1CC[C@H](N2Cc3cc(N4CCN(C[C@H]5CCCN(c6ccc([C@H]7c8ccc(O)cc8CC[C@H]7c7ccccc7)cc6)C5)CC4)ccc3C2=O)C(=O)N1` (single isomer, unassigned) [II-23], the DC50 is at least 10000 nM.

For the compound `O=C1CC[C@H](N2Cc3cc(N4CCN(CC5CCN(c6ccc([C@@H]7c8ccc(O)cc8CC[C@@H]7c7ccccc7F)cc6)CC5)CC4)ccc3C2=O)C(=O)N1` (single isomer, unassigned) [II-24], the DC50 is 245 nM.

Regarding `O=C1CC[C@H](N2Cc3cc(N4C[C@H]5C[C@@H]4CN5CC4CCN(c5ccc([C@@H]6c7ccc(O)cc7CC[C@@H]6c6ccccc6)cc5)CC4)ccc3C2=O)C(=O)N1` (single isomer, unassigned) [II-5], the DC50 came to 2 nM.

On to `O=C1CC[C@H](N2Cc3cc(N4CCN(CC5CCN(c6ccc([C@H]7c8ccc(O)cc8C(F)(F)C[C@H]7c7ccc(F)c(F)c7)cc6)CC5)CC4)ccc3C2=O)C(=O)N1` [Compound I-315, (S)-3-(5-(4-((1-(4-((1S,2R)-2-(3,4-difluorophenyl)-4,4-difluoro-6-hydroxy-1,2,3,4-tetrahydronaphthalen-1-yl)phenyl)piperidin-4-yl)methyl)piperazin-1-yl)-1-oxoisoindolin-2-yl)piperidine-2,6-dione], for which the DC50 was at least 10000 nM.

As to `O=C1CC[C@H](N2Cc3cc(N4CCN(CC5CCN(c6ccc([C@@H]7c8ccc(O)cc8C(F)(F)C[C@@H]7CC7CCCC7)cc6)CC5)CC4)ccc3C2=O)C(=O)N1` [Compound I-196, (3S)-3-[5-[4-[[1-[4-[(1R,2S)-2-(cyclopentylmethyl)-4,4-difluoro-6-hydroxy-tetralin-1-yl]phenyl]-4-piperidyl]methyl]piperazin-1-yl]-1-oxo-isoindolin-2-yl]piperidine-2,6-dione], the DC50 came to 2 nM.

As to `O=C1CC[C@H](N2Cc3cc(N4CCN(CCC5CCN(c6ccc([C@@H]7c8ccc(O)cc8CC[C@@H]7c7ccccc7)cc6)CC5)CC4)ccc3C2=O)C(=O)N1` [II-97], the DC50 came to 0.79 nM.

Take `C[C@H]1Cc2cc(O)ccc2[C@@H](c2ccc(N3CCC(CN4CCN(c5ccc6c(c5)CN([C@H]5CCC(=O)NC5=O)C6=O)CC4)CC3)cc2)[C@H]1c1ccccc1` [Compound I-174, (S)-3-(5-(4-((1-(4-((1R,2S,3S)-6-hydroxy-3-methyl-2-phenyl-1,2,3,4-tetrahydronaphthalen-1-yl)phenyl)piperidin-4-yl)methyl)piperazin-1-yl)-1-oxoisoindolin-2-yl)piperidine-2,6-dione]: the DC50 was 18 nM.

`Cc1cc(F)c([C@H]2OCc3cc(O)ccc3[C@H]2c2ccc(N3CCC(CN4CCN(c5ccc6c(c5)CN([C@H]5CCC(=O)NC5=O)C6=O)CC4)CC3)cc2)cc1F` [Compound I-369, (S)-3-(5-(4-((1-(4-((3S,4R)-3-(2,5-difluoro-4-methylphenyl)-7-hydroxyisochroman-4-yl)phenyl)piperidin-4-yl)methyl)piperazin-1-yl)-1-oxoisoindolin-2-yl)piperidine-2,6-dione]: the DC50 came out at 0.34 nM.

On to `O=C1CCC(N2Cc3cc(N4CCN(CC5CCN(c6ccc([C@@H]7c8ccc(O)cc8C(F)(F)C[C@@H]7c7ccccc7)cc6)CC5)CC4)ccc3C2=O)C(=O)N1` (stereo partly drawn) [Compound I-305, 3-(5-(4-((1-(4-((1R,2S)-4,4-difluoro-6-hydroxy-2-phenyl-1,2,3,4-tetrahydronaphthalen-1-yl)phenyl)piperidin-4-yl)methyl)piperazin-1-yl)-1-oxoisoindolin-2-yl)piperidine-2,6-dione], for which the DC50 was found to be 0.32 nM.

Take `O=C1CC[C@H](N2Cc3cc(N4CCN(CC5CCN(c6ccc(C7c8ccc(O)cc8CCC7c7ccncc7)cc6)CC5)CC4)ccc3C2=O)C(=O)N1` (stereo in doubt) [Compound I-133, (S)-3-(5-(4-((1-(4-((1R,2S)-6-hydroxy-2-(pyridine-4-yl)-1,2,3,4-tetrahydronaphthalen-1-yl)phenyl)piperidin-4-yl)methyl)piperazin-1-yl)-1-oxoisoindolin-2-yl)piperidine-2,6-dione]: the DC50 was at least 10000 nM.

As for `O=C1CC[C@@H](c2ccc(N3CCC4(CCN(CC5CCN(c6ccc([C@@H]7c8ccc(O)cc8CC[C@@H]7c7ccccc7)cc6)CC5)C4)CC3)cc2)C(=O)N1` (single isomer, unassigned) [Compound I-284], the DC50 was at least 10000 nM.

`O=C1CC[C@H](N2Cc3cc(N4CCN(CC5CCN(c6ccc([C@H]7c8ccc(O)cc8CO[C@H]7c7ccccc7)cc6)CC5)CC4)ccc3C2=O)C(=O)N1` [Compound I-4, (S)-3-(5-(4-((1-(4-((3R,4S)-7-hydroxy-3-phenylisochroman-4-yl)phenyl)piperidin-4-yl)methyl)piperazin-1-yl)-1-oxoisoindolin-2-yl)piperidine-2,6-dione]: the DC50 worked out at 59.4 nM.

In the case of `O=C1CC[C@H](N2Cc3cc(N4CCN(CC5CCN(c6ccc([C@@H]7c8ccc(O)cc8C(F)(F)C[C@@H]7c7cc(F)ccc7F)cc6)CC5)CC4)ccc3C2=O)C(=O)N1` [Compound I-316, (S)-3-(5-(4-((1-(4-((1R,2S)-2-(2,5-difluorophenyl)-4,4-difluoro-6-hydroxy-1,2,3,4-tetrahydronaphthalen-1-yl)phenyl)piperidin-4-yl)methyl)piperazin-1-yl)-1-oxoisoindolin-2-yl)piperidine-2,6-dione], the DC50 turned out to be 0.3 nM.

For the compound `O=C1CC[C@H](N2Cc3cc(N4CCN(CC5CCN(c6c(F)cc([C@H]7c8ccc(O)cc8CC[C@H]7c7ccccc7)cc6F)CC5)CC4)ccc3C2=O)C(=O)N1` [II-83], the DC50 came to 424 nM.

For `O=C1CCC(c2ccc(N3CC[C@]4(CCN(CC5CCN(c6ccc([C@@H]7c8ccc(O)cc8CC[C@@H]7c7ccccc7)cc6)CC5)C4)C3)cc2)C(=O)N1` (single isomer, unassigned) [Compound I-279], the DC50 stood at 16.5 nM.

As for `Cc1cc(F)c([C@@H]2CCc3cc(O)ccc3[C@@H]2c2ccc(N3CCC(CN4CCN(c5ccc6c(c5)CN([C@H]5CCC(=O)NC5=O)C6=O)CC4)CC3)cc2)cc1F` [II-76], the DC50 was at least 10000 nM.

As to `O=C1CCC(c2ccc(N3CC[C@]4(CCN(CC5CCN(c6ccc([C@@H]7c8ccc(O)cc8C(F)(F)C[C@@H]7c7ccccc7)cc6)CC5)C4)C3)cc2)C(=O)N1` (single isomer, unassigned) [Compound I-281], the DC50 worked out at 0.51 nM.

As for `Cc1cc(F)c([C@@H]2CC(F)(F)c3cc(O)ccc3[C@@H]2c2ccc(N3CCC(CN4CCN(c5ccc6c(c5)CN([C@H]5CCC(=O)NC5=O)C6=O)CC4)CC3)cc2)cc1F` (single isomer, unassigned) [Compound I-325], the DC50 amounted to 11 nM.

Turning to `C[C@]1(N2Cc3cc(N4CCN(CC5CCN(c6ccc([C@@H]7c8ccc(O)cc8CC[C@@H]7c7ccccc7)cc6)CC5)CC4)ccc3C2=O)CCC(=O)NC1=O` (single isomer, unassigned) [II-57], the DC50 was at least 10000 nM.
